Read-outs that look alike come from different tables or passages of the source.
Tests used:
[1] = target: T1, GBA (Homo sapiens (Human), UniProt P04062, R534H); assay: GBA enzyme activity assay with 4-methylumbelliferyl β-D-glucopyranoside, inhibitor preincubated 30 min (apparent IC50); format: biochemical
[2] = target: glucocerebrosidase (Homo sapiens (Human), UniProt P04062); assay: In situ inhibition of glucocerebrosidase in cells at 18° C. and 37° C.; format: cell-based; conditions: 10 nM, 2 hours
Source text: To identify the mechanism of entry of the probes, we performed a temperature experiment. […] We harvested the cells and determined the residual activity using a fluorogenic substrate assay. […] We therefore exclude that the uptake is solely by endocytosis.

[3] = target: T1, GBA; assay: Continuous substrate release assay for inhibition constants; format: biochemical
Source text: Previously discontinuous methods have been used to determine the inhibition constants of glycosidase inhibitors. […] Therefore the inhibition constants have been determined in a continuous substrate assay which was first described in 1982 (2) and has recently been reappraised in 2010 (3). In these experiments, inhibition of the enzyme and hydrolysis of the substrate proceed concurrently making the situation slightly more complex than the discontinuous (FIG. 39 Scheme 2). The time-dependent interaction of inhibitor (I) with free β-glucosidase (E) was considered to occur in separate stages (A). A rapid reversible interaction is followed by a slower, irreversible reaction that transforms the reversible enzyme-inhibitor complex (EI) into an irreversible enzyme-inhibitor complex (EI*) (FIG. 39 Scheme 2). Progress curves were obtained (FIG. 28a) and apparent rate constant k′ was plotted versus the concentration (FIG. 28b) to obtain estimates of the Ki (equilibrium constant) and ki (rate constant)
To 100 μL McIlvaine buffer (pH 5.2, 0.2% sodium taurocholate, 0.1% Triton X-100) containing 4-methylumbelliferyl β-D-glucoside (7.5 mM) in Greiner flat bottom black 96-well plate was added 5 μL inhibitor (25× stock in DMSO). The resulting mixture was preincubated at 37° C. for 15 min in a TECAN GENios microplate reader. GBA (2 ng) in McIlvaine buffer (20 μL pH 5.2, 0.2% sodium taurocholate, 0.1% Triton X-100) was preheated to 37° C. for 15 min before being added to the substrate mix. The resulting solution was mixed by horizontal shaking for 15 sec, after which release 4-methylumbelliferyl measured with a TECAN GENios platereader (λex 340 nm and λem 465 nm) for the indicated time. Bleaching of the fluorophore, which was observed during the assay, was corrected by subtracting blanks (100 μL substrate buffer, 5 μL DMSO, 20 μL McIlvaine buffer). Apparent rate constants k′ were obtained by fitting the resulting progress curves (FIG. 28A) to the one-phase association equitation y (y max y0)(1−exp^−kt)yo+in GraphPad Prism version 5.00 for Windows, GraphPad Software, San Diego Calif. USA, www.graphpad.com. Measurements were performed in nine fold and plotting of the obtained k′ values versus [^I0] yielded rectangular hyperbolar functions (FIG. 28B).
[formula] estimates of Ki app and ki were obtained. The Ki value in the absence of substrate was obtained by correcting the Ki app with […]

[4] = target: T2, GBA (Mus musculus (Mouse), UniProt P17439); assay: Labeling specificity in cell homogenates (SDS-PAGE, fluorescence scanning); conditions: 100 nM, 30 min, 37° C., homogenates of cultured RAW cells
Target sequence in this assay (P17439 20-515 limits assumed): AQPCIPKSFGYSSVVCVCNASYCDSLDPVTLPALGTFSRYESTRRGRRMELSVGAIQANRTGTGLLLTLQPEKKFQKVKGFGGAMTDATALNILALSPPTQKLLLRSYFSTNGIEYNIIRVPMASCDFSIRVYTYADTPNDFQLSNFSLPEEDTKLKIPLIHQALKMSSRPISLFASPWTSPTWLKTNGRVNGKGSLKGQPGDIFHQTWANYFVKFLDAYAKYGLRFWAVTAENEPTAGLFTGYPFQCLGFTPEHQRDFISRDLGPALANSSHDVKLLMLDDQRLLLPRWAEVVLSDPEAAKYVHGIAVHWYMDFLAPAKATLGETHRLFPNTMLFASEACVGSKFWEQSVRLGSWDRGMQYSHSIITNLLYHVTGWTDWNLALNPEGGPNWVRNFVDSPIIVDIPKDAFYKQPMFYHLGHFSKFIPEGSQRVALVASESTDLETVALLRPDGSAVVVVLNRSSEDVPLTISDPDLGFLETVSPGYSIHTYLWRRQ

[5] = system: lactase (lactase-phloridzin hydrolase: LPH); assay: Lactase activity inhibition (liberated glucose); conditions: incubation for 30 min with 1 mM
[6] = target: T1, GBA; assay: Sensitivity of detection of ABP-labeled GBA on slab gel by fluorescence scanning
Description: After the incubation, we resolved the protein preparations with SDS-PAGE and analyzed the labeled proteins by fluorescence scanning of the slab gel on a Typhoon Variable Mode Imager (FIG. 24a). Labeled recombinant GBA migrated at the expected mass of 57 kDa. […] We could detect as little as 20 attomol GBA by fluorescence scanning. […] Apparently, nearly all of the probe had been covalently bound to recombinant GBA, consistent with its high affinity for binding.

[7] = target: GBA1 (Homo sapiens (Human), UniProt P04062, N370S); assay: In situ labeling of GBA1 in Gaucher (N370S) fibroblasts; format: cell-based; conditions: 20 nM for 1 hour, N370S GBA1 homozygote fibroblasts
Description: FIG. 20 presents a schematic illustration of Gaucher treatment (FIG. 20a) via the chaperone isofagimine, whose structure is separately shown in FIG. 20b. […] The fibroblasts were labeled with Fluorophore 1-cyclophellitol (for example 20 nM for 1 hour), wherein about 50% of cellular GBA1 was labeled.

[8] = target: GBA1 (Homo sapiens (Human), UniProt P04062); assay: Kinetic constants of GBA1 inhibition (Table 2); format: biochemical; conditions: Table 2 kinetic constants
[9] = target: T2, GBA; assay: Labeling of GBA in live mice; format: in vivo; conditions: 0.1 nmol intravenously, 2 h
Description: We next studied the labeling of GBA by MDW941 in intact fibroblasts using time-lapse microscopy. […] As a control, matched mice received the buffer solution intravenously. […] In addition to GBA, MDW933 clearly labeled other proteins that occur in the intestine in the mouse.
Experimental procedures were all approved by the appropriate ethics committee for animal experiments. C57BI/6J mice were obtained from Harlan and fed a commercially available lab diet (RMH-B; Hope Farms). […] After 2 h of administration the mice were anesthetized with FFM mix (1 ml of fentanylcitrate, 1 ml of midazalam and 2 ml of distilled water), and blood, urine and organs were collected and directly frozen in liquid nitrogen. […] Homogenates were analyzed as described above.
Target sequence in this assay (P17439 20-515): as the sequence (P17439 20-515 limits assumed) above

T1 sequence (P04062 40-536 R534H): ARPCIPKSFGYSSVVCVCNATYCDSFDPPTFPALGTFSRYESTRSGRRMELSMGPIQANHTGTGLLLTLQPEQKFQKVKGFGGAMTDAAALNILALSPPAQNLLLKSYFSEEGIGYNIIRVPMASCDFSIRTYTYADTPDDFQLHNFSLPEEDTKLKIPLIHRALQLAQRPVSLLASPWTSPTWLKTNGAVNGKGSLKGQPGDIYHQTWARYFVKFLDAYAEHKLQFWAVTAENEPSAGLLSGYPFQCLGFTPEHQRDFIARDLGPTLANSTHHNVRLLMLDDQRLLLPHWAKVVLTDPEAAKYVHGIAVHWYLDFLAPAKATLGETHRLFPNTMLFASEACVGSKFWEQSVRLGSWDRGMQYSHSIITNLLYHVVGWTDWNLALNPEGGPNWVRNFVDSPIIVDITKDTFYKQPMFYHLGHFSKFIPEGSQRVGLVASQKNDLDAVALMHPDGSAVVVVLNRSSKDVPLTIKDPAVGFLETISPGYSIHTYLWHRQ
Chain of GBA1 (Homo sapiens (Human), UniProt P04062) (P04062 40-536): as the sequence (P04062 40-536 R534H) above, with H495R counted along it
Chain of glucocerebrosidase (P04062 40-536): as the sequence (P04062 40-536 R534H) above, with H495R counted along it
Chain of GBA1 (Homo sapiens (Human), UniProt P04062, N370S) (P04062 40-536 N409S): as the sequence (P04062 40-536 R534H) above, with N370S, H495R counted along it

IC50 ([1]; FIG. 16, ABPs designed for GBA1, read-out: IC50): 2 nM | IC50 ([1]; rec. GBA1, 30 min, 37 C., pH 5.2 + Tch, Tr, read-out: Apparent IC50 (nM) rec. GBA1: 30 min, 37 C., pH 5.2 + Tch, Tr): 2 ± 0.5 nM | IC50 ([1]; recombinant GBA, read-out: apparent half-maximal inhibitory concentration (IC50)): 1.24 ± 0.04 nM | Ki ([3]; equilibrium constant for initial binding, reported with s.e.m.): 7 ± 2 nM | ki ([3]; rate constant, reported with s.e.m.): 0.127 ± 0.024 min⁻¹ | ki/Ki ([3]; relative rate constant): 296000 M⁻¹ s⁻¹ | labeling specificity [4]: exclusive labeling of GBA | inhibition of lactase activity [5]: ~90% | amount of labeled GBA detectable by fluorescence scanning ([6]; 2 pmol GBA with excess probe, 1 h, 37° C., titration on gel): 20 attomol | amount of probe resulting in detectable GBA on slab gel ([6]; 2 pmol GBA, 30 min): 20 attomol | amount of GBA1 detected on slab gel ([6]; ABP-labeled GBA1): 10 attomole | cellular GBA1 labeled [7]: about 50% | Ki [8]: 0.95 nM | ki [8]: 0.0236 min⁻¹ | in vivo labeling of GBA in brain ([9]; brain): almost no GBA | in vivo labeling of GBA in most tissues ([9]; lung and liver): a considerable proportion of GBA
SMILES: CC1=CC(C)=[N+]2C1=C(CCCCc1cn(C[C@@H]3[C@@H](O)[C@H](O)[C@@H](O)[C@@H]4O[C@H]34)nn1)c1c(C)cc(C)n1[B-]2(F)F [MDW933]
in situ glucocerebrosidase activity [2]: blocked glucocerebrosidase activity in situ
